Assay results as given in paper PMC6813354, “Bases of Bacterial Sodium Channel Selectivity Among Organic Cations” (Scientific Reports, 2019).

Target: T1, NaChBac (Halalkalibacterium halodurans, UniProt Q9KCR8)
T1 construct: gene BH1501; NaChBac in pTracer-CMV2, transiently expressed in tsA 201 cells; homotetramer
T1 sequence (Q9KCR8 1-274): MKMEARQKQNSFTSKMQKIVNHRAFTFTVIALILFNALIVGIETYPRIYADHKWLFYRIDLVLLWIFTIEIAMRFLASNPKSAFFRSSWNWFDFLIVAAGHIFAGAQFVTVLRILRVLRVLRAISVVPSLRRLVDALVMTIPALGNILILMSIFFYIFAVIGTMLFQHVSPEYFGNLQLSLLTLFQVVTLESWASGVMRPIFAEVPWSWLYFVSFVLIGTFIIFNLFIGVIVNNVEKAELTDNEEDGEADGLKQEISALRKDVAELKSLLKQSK
Experiment: whole-cell patch clamp
Assay type: cell-based
Details: 142.5 mM external replacing Na+; pH 7.4; room temperature; weak pore block of Na+ current

Row | Structure (SMILES) | whole-cell patch clamp
1 | CN [MA^+, methylammonium] | MA^+ reduces the sodium current amplitude more effectively than TMA^+ in WT and E191D mutant
2 | C[N+](C)(C)C [TMA^+, tetramethylammonium] | different blocking effects of TMA^+ (purple) and MA^+ (orange), relative to Na^+ controls
